Consider 19 molecules from patent US20190322676A1, “CERAMIDE GALACTOSYLTRANSFERASE INHIBITORS FOR THE TREATMENT OF DISEASE” (BioMarin Pharmaceutical Inc., priority 2016, published 2019).

Assay [1] addresses T1, human CGT (ceramide galactosyltransferase), CHO/CGT lysate (Homo sapiens, UniProt Q16880).
T1 construct: Full-length human CGT cDNA was cloned into the BamH1/Xho1 site of pcDNA3.1 (+); expressed in transfected cells; host or cells: Chinese hamster ovary (CHO) cells; lysate prepared with M-PER
T1 sequence (Q16880 21-541): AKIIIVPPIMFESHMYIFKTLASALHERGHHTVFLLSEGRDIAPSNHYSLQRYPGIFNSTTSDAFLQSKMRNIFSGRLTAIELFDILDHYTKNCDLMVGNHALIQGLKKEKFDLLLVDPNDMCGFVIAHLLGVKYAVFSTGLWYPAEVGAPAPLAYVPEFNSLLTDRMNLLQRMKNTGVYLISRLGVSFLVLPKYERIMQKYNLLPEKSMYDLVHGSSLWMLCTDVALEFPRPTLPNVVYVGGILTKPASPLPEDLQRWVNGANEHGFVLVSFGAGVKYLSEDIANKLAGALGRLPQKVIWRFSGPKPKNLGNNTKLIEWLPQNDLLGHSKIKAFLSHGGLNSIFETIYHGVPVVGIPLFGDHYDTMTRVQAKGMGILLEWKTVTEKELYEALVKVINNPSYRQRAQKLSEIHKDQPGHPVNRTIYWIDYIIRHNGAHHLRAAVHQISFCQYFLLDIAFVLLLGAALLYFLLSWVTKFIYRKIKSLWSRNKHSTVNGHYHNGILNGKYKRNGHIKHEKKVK
The assay is described as follows: CGT enzyme assay, RapidFire/MS/MS readout with 0.01% Tween added (Table 1 ranges with two asterisks **). The format is biochemical. The gist of the method:
(§1)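 IC50s come from variable-slope dose-response fits of internal-standard-normalized C6-NBD-dihydro-galactosylceramide, measured by RapidFire/MS/MS (ESI negative). Reactions: 1 h, 37 °C, human CGT-expressing CHO lysate (4 μg), 0.001–50 μM compound, 10 μM NBD-dihydro-ceramide, 17.5 μM UDP-galactose, 0.5% DMSO, pH 7.2; 0.01% Tween 80 added for ** values.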

In assay [2] the target is T1, human CGT (ceramide galactosyltransferase), CHO/CGT lysate. The assay is described as follows: CGT enzyme assay, RapidFire/MS/MS readout (Table 1 ranges with one asterisk *). Format: biochemical. The settings on record: RapidFire method (range with one asterisk *). The gist of the method: as §1
Setting [3] is: CGT enzyme assay, RapidFire/MS/MS method with 0.01% Tween added (range with two asterisks **).
[4] abbreviates: CGT enzymatic assay, range with two asterisks (**): RapidFire/MS/MS method with 0.01% Tween added.

Where a name gives a salt, the structure may show the parent alone.

By IC50 is commonly meant the point on the concentration scale where inhibition reaches its midpoint. The low end stands for greater potency, the high end for weaker potency. Regarding `NC1CC2CCC(C1)N2C(=O)[C@@H](NS(=O)(=O)c1ccc2cc(OC3CCCC3)ccc2c1)C(F)(F)c1ccc(-c2ccc(Cl)cc2)cc1` (stereo partly drawn) [Compound 48-1, N-((2R)-3-(3-amino-8-azabicyclo[3.2.1]octan-8-yl)-1-(4′-chloro-[1,1′-biphenyl]-4-yl)-1,1-difluoro-3-oxopropan-2-yl)-6-(cyclopentyloxy)naphthalene-2-sulfonamide trifluoroacetate], the IC50 in assay [1] (setting [3]) and in assay [2] was below 1 µM throughout.

With `NC1CC2CCC(C1)N2C(=O)[C@H](NS(=O)(=O)c1ccc2cc(OC3CCCC3)ccc2c1)C(F)(F)c1ccc(-c2ccc(Cl)cc2)cc1` (stereo partly drawn) [Compound 48-2, N-((2S)-3-(3-amino-8-azabicyclo[3.2.1]octan-8-yl)-1-(4′-chloro-[1,1′-biphenyl]-4-yl)-1,1-difluoro-3-oxopropan-2-yl)-6-(cyclopentyloxy)naphthalene-2-sulfonamide trifluoroacetate], the IC50 in assay [1] (setting [3]) and in assay [2] was 1 to 10 µM throughout.

For the molecule `NC1CCN(C(=O)[C@@H](NS(=O)(=O)c2ccc3cc(OC4CCCC4)ccc3c2)C(F)(F)c2ccc(-c3ccc(Cl)cc3)cc2)CC1` [Compound 91-1, (R)—N-(3-(4-aminopiperidin-1-yl)-1-(4′-chloro-[1,1′-biphenyl]-4-yl)-1,1-difluoro-3-oxopropan-2-yl)-6-(cyclopentyloxy)naphthalene-2-sulfonamide trifluoroacetate], the half-inhibitory concentration (IC50) in assay [1] (setting [3]) and in assay [2] was below 1 µM in each case.

On to `NC1CCN(C(=O)[C@H](NS(=O)(=O)c2ccc3cc(OC4CCCC4)ccc3c2)C(F)(F)c2ccc(-c3ccc(Cl)cc3)cc2)CC1` [Compound 91-2, (S)—N-(3-(4-aminopiperidin-1-yl)-1-(4′-chloro-[1,1′-biphenyl]-4-yl)-1,1-difluoro-3-oxopropan-2-yl)-6-(cyclopentyloxy)naphthalene-2-sulfonamide trifluoroacetate], for which the IC50 in assay [1] (setting [3]) and in assay [2] was 1 to 10 µM in each case.

The molecule `O=C([C@H](NS(=O)(=O)c1ccc2cc(OC3CCCC3)ccc2c1)C(F)(F)c1ccc(-c2ccc(Cl)cc2)cc1)N1CC[C@H]2CNC[C@H]21` [Compound 192-4, N-((S)-1-(4′-chloro-[1,1′-biphenyl]-4-yl)-1,1-difluoro-3-((3aS,6aS)-hexahydropyrrolo[3,4-b]pyrrol-1(2H)-yl)-3-oxopropan-2-yl)-6-(cyclopentyloxy)naphthalene-2-sulfonamide] came in with a half-inhibitory concentration (IC50) in assay [1] (setting [4]) of 30 to 100 µM.

In the case of `C=C(c1ccc(C(F)(F)[C@H](NS(=O)(=O)c2ccc(OCC3CCCCC3)cc2)C(=O)N2CCC(N)CC2)cc1)C(F)(F)F` [Compound 193-1, (R)-N-(3-(4-aminopiperidin-1-yl)-1,1-difluoro-3-oxo-1-(4-(3,3,3-trifluoroprop-1-en-2-yl)phenyl)propan-2-yl)-4-(cyclohexylmethoxy)benzenesulfonamide], in assay [1] (setting [4]), the IC50 is below 1 µM.

Molecule `C=C(c1ccc(C(F)(F)[C@@H](NS(=O)(=O)c2ccc(OCC3CCCCC3)cc2)C(=O)N2CCC(N)CC2)cc1)C(F)(F)F` [Compound 193-2, (S)-N-(3-(4-aminopiperidin-1-yl)-1,1-difluoro-3-oxo-1-(4-(3,3,3-trifluoroprop-1-en-2-yl)phenyl)propan-2-yl)-4-(cyclohexylmethoxy)benzenesulfonamide] had a half-maximal inhibitory concentration (IC50) in assay [1] (setting [4]) of 30 to 100 µM.

`NC1CC2CCC(C1)N2C(=O)[C@@H](NS(=O)(=O)c1ccc(OCC2CCCCC2)cc1)C(F)(F)c1ccc(Cl)s1` (stereo partly drawn) [Compound 194-1, N-((2R)-3-(3-amino-8-azabicyclo[3.2.1]octan-8-yl)-1-(5-chlorothiophen-2-yl)-1,1-difluoro-3-oxopropan-2-yl)-4-(cyclohexylmethoxy)benzenesulfonamide]: in assay [1] (setting [4]), the IC50 fell in the range of 1 to 10 µM.

In assay [1] (setting [4]), `NC1CC2CCC(C1)N2C(=O)[C@H](NS(=O)(=O)c1ccc(OCC2CCCCC2)cc1)C(F)(F)c1ccc(Cl)s1` (stereo partly drawn) [Compound 194-2, N-((2S)-3-(3-amino-8-azabicyclo[3.2.1]octan-8-yl)-1-(5-chlorothiophen-2-yl)-1,1-difluoro-3-oxopropan-2-yl)-4-(cyclohexylmethoxy)benzenesulfonamide] gave an IC50 of 30 to 100 µM.

Take `O=C([C@@H](NS(=O)(=O)c1ccc(OCC2CCCCC2)cc1)C(F)(F)c1ccc(-c2ccc(Cl)cc2)cc1)N1CC[C@H]2CNC[C@H]21` [Compound 195-1, N-((R)-1-(4′-chloro-[1,1′-biphenyl]-4-yl)-1,1-difluoro-3-((3aS,6aS)-hexahydropyrrolo[3,4-b]pyrrol-1(2H)-yl)-3-oxopropan-2-yl)-4-(cyclohexylmethoxy)benzenesulfonamide]: the IC50 in assay [1] (setting [4]) lay in the range of 1 to 10 µM.

In the case of `O=C([C@H](NS(=O)(=O)c1ccc(OCC2CCCCC2)cc1)C(F)(F)c1ccc(-c2ccc(Cl)cc2)cc1)N1CC[C@@H]2CNC[C@@H]21` [Compound 195-2, N-((S)-1-(4′-chloro-[1,1′-biphenyl]-4-yl)-1,1-difluoro-3-((3aR,6aR)-hexahydropyrrolo[3,4-b]pyrrol-1(2H)-yl)-3-oxopropan-2-yl)-4-(cyclohexylmethoxy)benzenesulfonamide], in assay [1] (setting [4]), the IC50 is 30 to 100 µM.

Take `O=C([C@@H](NS(=O)(=O)c1ccc(OCC2CCCCC2)cc1)C(F)(F)c1ccc(-c2ccc(Cl)cc2)cc1)N1CC[C@@H]2CNC[C@@H]21` [Compound 195-3, N-((R)-1-(4′-chloro-[1,1′-biphenyl]-4-yl)-1,1-difluoro-3-((3aR,6aR)-hexahydropyrrolo[3,4-b]pyrrol-1(2H)-yl)-3-oxopropan-2-yl)-4-(cyclohexylmethoxy)benzenesulfonamide]: the IC50 in assay [1] (setting [4]) fell in the range of 1 to 10 µM.

In assay [1] (setting [4]), `O=C([C@H](NS(=O)(=O)c1ccc(OCC2CCCCC2)cc1)C(F)(F)c1ccc(-c2ccc(Cl)cc2)cc1)N1CC[C@H]2CNC[C@H]21` [Compound 195-4, N-((S)-1-(4′-chloro-[1,1′-biphenyl]-4-yl)-1,1-difluoro-3-((3aS,6aS)-hexahydropyrrolo[3,4-b]pyrrol-1(2H)-yl)-3-oxopropan-2-yl)-4-(cyclohexylmethoxy)benzenesulfonamide] displayed a half-inhibitory concentration (IC50) of 30 to 100 µM.

The molecule `NC1CCN(C(=O)[C@@H](NS(=O)(=O)c2ccc(OCC3CCCCC3)cc2)C(F)(F)c2ccc(C3(C(F)(F)F)CC3)cc2)CC1` [Compound 196-1, (R)-N-(3-(4-aminopiperidin-1-yl)-1,1-difluoro-3-oxo-1-(4-(1-(trifluoromethyl)cyclopropyl)phenyl)propan-2-yl)-4-(cyclohexylmethoxy)benzenesulfonamide] had a concentration for half-maximal inhibition (IC50) in assay [1] (setting [4]) of 1 to 10 µM.

With `NC1CCN(C(=O)[C@H](NS(=O)(=O)c2ccc(OCC3CCCCC3)cc2)C(F)(F)c2ccc(C3(C(F)(F)F)CC3)cc2)CC1` [Compound 196-2, (S)-N-(3-(4-aminopiperidin-1-yl)-1,1-difluoro-3-oxo-1-(4-(1-(trifluoromethyl)cyclopropyl)phenyl)propan-2-yl)-4-(cyclohexylmethoxy)benzenesulfonamide], the half-maximal inhibitory concentration (IC50) in assay [1] (setting [4]) is 10 to 30 µM.

Take `COc1cc(C(F)(F)[C@H](NS(=O)(=O)c2ccc3cc(OC4CCCC4)ccc3c2)C(=O)N2C[C@H]3CNC[C@H]3C2)ccc1-c1ccc(Cl)cc1` [Compound 197-1, N-((R)-1-(4′-chloro-2-methoxy-[1,1′-biphenyl]-4-yl)-1,1-difluoro-3-((3aR,6aS)-hexahydropyrrolo[3,4-c]pyrrol-2(1H)-yl)-3-oxopropan-2-yl)-6-(cyclopentyloxy)naphthalene-2-sulfonamide]: the 50% inhibitory concentration (IC50) in assay [1] (setting [4]) was below 1 µM.

The molecule `COc1cc(C(F)(F)[C@@H](NS(=O)(=O)c2ccc3cc(OC4CCCC4)ccc3c2)C(=O)N2C[C@H]3CNC[C@H]3C2)ccc1-c1ccc(Cl)cc1` [Compound 197-2, N-((S)-1-(4′-chloro-2-methoxy-[1,1′-biphenyl]-4-yl)-1,1-difluoro-3-((3aR,6aS)-hexahydropyrrolo[3,4-c]pyrrol-2(1H)-yl)-3-oxopropan-2-yl)-6-(cyclopentyloxy)naphthalene-2-sulfonamide] displayed an IC50 in assay [1] (setting [4]) of 10 to 30 µM.

Molecule `NC1CCN(C(=O)[C@@H](NS(=O)(=O)c2ccc(OCC3CCCCC3)cc2)C(F)(F)c2ccc3c(c2)oc2cc(Cl)ccc23)CC1` [Compound 198-1, (R)-N-(3-(4-aminopiperidin-1-yl)-1-(7-chlorodibenzo[b,d]furan-3-yl)-1,1-difluoro-3-oxopropan-2-yl)-4-(cyclohexylmethoxy)benzenesulfonamide] registered an IC50 in assay [1] (setting [4]) of 1 to 10 µM.

In assay [1] (setting [4]), `NC1CCN(C(=O)[C@H](NS(=O)(=O)c2ccc(OCC3CCCCC3)cc2)C(F)(F)c2ccc3c(c2)oc2cc(Cl)ccc23)CC1` [Compound 198-2, (S)-N-(3-(4-aminopiperidin-1-yl)-1-(7-chlorodibenzo[b,d]furan-3-yl)-1,1-difluoro-3-oxopropan-2-yl)-4-(cyclohexylmethoxy)benzenesulfonamide] yielded a concentration for half-maximal inhibition (IC50) of 30 to 100 µM.
